As a reminder, the Km is the concentration of substrate that gives half-maximal velocity.

Molecules are shown by their SMILES.

The results in this text go back to US7410755B2, “ADP detection using an enzyme-coupled reaction” (Discoverx, priority 2005, dated 2008).

This assay deals with Protein Kinase A (PKA) (Homo sapiens, UniProt P17612). To be noted: read-out: Km of ATP for PKA; Kemptide substrate, PKA (Upstate), 30° C. for 1 hour; fitted to Michaelis-Menten equation; FIG. 4.

Description: In this second example, kinase reaction, the activity of PKA is characterized further. In this experiment, the kinetics of ATP on PKA activity was examined by measuring the rate of kinase activity at varying concentration of ATP. The results of this assay were fitted to the Michaelis-Menten equation so that the Km (Michaelis-Menten constant) of ATP for PKA could be determined.
To perform a protein kinase assay using the ADP Detection Assay, the assay reagents were thawed at room temperature for several hours.
Low salt assay buffer (LS ASB) was used to dilute all reagents in the kinase reaction and consisted of 15 mM Hepes, 20 mM NaCl, 1 mM EGTA, 0.02% Tween 20, 10 mM MgCl2, 0.1% bovine gamma globulin at pH 7.4. Substrate reagent was generated containing 800 μM Kemptide substrate. […] PKA kinase (Upstate) was diluted to give a reagent of 20 ng/ml. […]
To detect the generation of ADP as a result of kinase activity, 10 μ ADP Substrate Reagent was added followed immediately by 20 μl of ADP Enzyme Reagent. […] Assay signal was measured with a Fluorocount® fluorescent plate reader (Packard) using 0.1 second integration with excitation and emission wavelengths at 530 and 590 nm respectively and a PMT voltage of 750 Volts.
The data was converted by dividing the signal measured by 60 to obtain the enzyme rate in RFU per minute. […]

For the molecule `Nc1ncnc2c1ncn2[C@@H]1O[C@H](COP(=O)(O)OP(=O)(O)OP(=O)(O)O)[C@@H](O)[C@H]1O` [ATP], the Km is 22.3 µM.
